Patent US4444691A, “11-Cyano-prostaglandins of the F-series” (American Cyanamid Company, priority 1982, dated 1984)
Like-named read-outs stand apart in the source and are kept apart here.

Tests used:
gastric acid secretion = test: Gastric acid secretion inhibition, modified Shay rat procedure; format: in vivo, rats (male, CFE strain)
Text: The novel compounds of the present invention are effective inhibitors of gastric acid secretion and of ulcer development in experimental animals, and thus are potentially valuable as agents for the control of gastric secretion and of gastric erosion and as anti-ulcer agents. Gastric acid secretion inhibitory action is usually measured by the "Shay rat" procedure ^(1,2) with some modifications as follows.
(1) Shay et al., Gastroenterology, 5, 43 (1945).
The rats (male, CFE strain) were starved for 48 hours (water was given ad libitum) to permit evacuation of stomach contents. On the morning of the experiment, under ether anesthesia, the abdominal region was shaved and a midline incision (1-11/2" ) was made with a scapel. With the help of a closed curved hemostat the duodenum was picked up. Upon getting the duodenum into view, fingers were used to pull the stomach through the opening, the stomach was then gently manipulated with fingers to rid stomach of air and residual matter which were pushed through the pylorus. Two-5 inch sutures were drawn under the pyloric-duodenal puncture. A ligature at the juncture, was formed with one of the threads. The second ligature was also formed but not tightened.
The test compound or the vehicle, usually 1 ml./100 g. body weight, were injected into the duodenum as close as possible to the first ligature. After injection the second ligature was tightened below the injection site to minimize leakage. The stomach was placed back through the opening into the abdominal cavity, the area of incision was washed with saline and the incision was closed with autoclips. (Occasionally, instead of an intraduodenal injection, animals were dosed by the oral or subcutaneous route. In the latter case, dosing was done thirty to sixty minutes before the operation.)
The abdominal cavity was exposed by cutting with scissors and the esophagus close to the stomach was clamped off with a hemostat, the stomach was removed by cutting above the hemostat (the esophagus was cut) and between the two sutures. Extraneous tissue was removed, the stomach washed with saline and blotted on gauze. A slit was carefully made in the stomach which was held over a funnel and the contents were collected in a centrifuge tube. The stomach was further cut along the outside edge and turned inside out. Two ml. H2 O were used to wash the stomach contents into the respective centrifuge tube. The combined stomach contents and wash were then centrifuged out for 10 minutes in the International Size 2 Centrifuge (setting at 30). The supernatant was collected, volume measured and recorded, 2 drops of a phenylphthalein indicator (1% in 95% ethanol) were added and the solution was titrated with 0.02 N NaOH (or with 0.04 N NaOH when large volumes of stomach contents were encountered) to pH 8.4 (because of usual coloring of the stomach contents, phenolphthalein was only used to permit visual indication that the end point was near) and the amount of acid present was calculated.
Compounds inducing inhibition of gastric acid secretion of 20% or more were considered active. In a representative operation, and merely by way of illustration, the results obtained with this assay with typical compounds of the present invention are given in Table II below.

[1] = system: bronchospasms elicited by 5-hydroxytryptamine; test: Bronchodilator activity (Konzett assay), 5-hydroxytryptamine bronchospasm; format: in vivo, guinea pigs; conditions: spasmogenic agent 5-hydroxytryptamine, three logarithmic cumulative intravenous doses; for ED50: Cavia porcellus
Procedure: (§1) Bronchodilator activity was determined in guinea pigs against bronchospasms elicited by intravenous injections of 5-hydroxytryptamine, histamine or acetylchlorine by the Konzett procedure. (See J. Lulling, P. Licvens, F. El Sayed and J. Prignot, Arzneinittel-Forschung, 18, 995 (1968).]
(§2) In the Table which follows bronchodilator activity for representative compounds of this invention against one or more of the three spasmogenic agents is expressed as an ED50 determined from the results obtained with three logarithmic cumulative intravenous doses.

[2] = system: bronchospasms elicited by histamine; test: Bronchodilator activity (Konzett assay), histamine bronchospasm; format: in vivo, guinea pigs; conditions: spasmogenic agent histamine, three logarithmic cumulative intravenous doses; for ED50: Cavia porcellus, iv
Procedure: as §1, §2

[3] = system: ulcerogenic effects induced by indomethacin (stomach ulcers); format: in vivo, rat; conditions: indomethacin 20 mg/kg s.c., score 0-4
Procedure: It is further to be noted that although prostaglandins in general are not effective when administered by oral route, the compounds of this invention are effective orally. The assay to determine the protective effect of these compounds is carried out in the following manner.
Rats were starved for 48 hours (water was given ad libitum). Indomethacin (20 mg./kg. of body weight) was administered by the subcutaneous route and one-half the dose of the test compound was administered by gavage at the same time. After three hours, the second half of the test compound was administered, also by gavage. Five hours after the administration of indomethacin the animals were decapitated and the stomachs removed. The stomachs were washed with distilled water, blotted on gauze, cut along the larger curvature, and the contents rinsed with distilled water. The stomachs were spread out, pinned on a cork and visualized under magnifying glass for ulcers. The criteria for scoring of ulcers was as previously reported. [Abdel-Galil et al. Brit. J. Pharmac. Chemotherapy 33:1-14 (1968)]. […]
1 Petechial hemorrhage of pin point ulcers
3 Many ulcers, a few large
4 Many ulcers, mainly large
Control animals treated with indomethacin but not test compound consistently give scores of about 2.5-3.5. Control animals treated with neither indomethacin not test compound give scores of about 0.5-0.8. Compounds diminishing the control ulcer score by 0.5 unit or more are considered to be active.

[4] = system: basal gastric acid secretion; test: Inhibition of total acid output (basal gastric acid secretion) in the acute gastric fistula rat; format: in vivo, female Sprague-Dawley rats; conditions: intraduodenal, 10 mg/kg; for inhibition in vivo at 10 mg/kg: Rattus norvegicus
Procedure: Inhibition of basal gastric acid secretion can be determined by the following procedure.
Female Sprague-Dawley rats weighing 140-160 grams are fasted in individual cages for 18-24 hours. The rats are then lightly anesthetized with ether and their front teeth extracted to avoid destruction of the plastic cannula. A midline incision is then made and the stomach and duodenum exposed. A flanged polyvinyl tube is inserted into the fundic portion of the stomach and secured with a purse string suture line using 4-O Mersilene. The rat is then dosed by injection of the compound into the duodenum (1.0 ml. per 100 gram body weight). After dosing, the abdominal wall and skin are closed using metal wound clips. The rat is replaced in a cage containing a longitudinal slit to allow the polyvinyl tube to hang freely. An 8 ml. plastic collecting tube is attached to the flanged cannula and hangs freely below the cage. The first 30 minute sample is discarded designating this time as zero. The collecting tube is attached again and samples removed at the end of 60 and 120 minutes. These samples are referred to as "A" and "B" in the table. The hourly samples are then transferred to a 15 ml. centrifuge and centrifuged for 5-10 minutes. Total and sediment volume are then recorded with the supernatent volume being used as volume of secretion. A 1 ml. or less aliquot is then removed and placed in a 50 ml. beaker containing 10 ml. of distilled water. This sample is then titrated using 0.01 N NaPH to pH 7.0 using a Beckman zeromatic pH meter. Volume, titratable acidity (mew/L) and total acid output (ueq/hour) are recorded. Percent inhibition is determined by comparison with the appropriate control. Groups of three rats were used for preliminary testing, and groups of six rats were used for dose-response evaluations. All compounds are administered in a vehicle consisting of 0.5% methocel, 0.4% tween 80, and saline at a constant volume of 1 ml./100 gram rat. Samples are dispersed by sonification. Percent inhibition is calculated on basis of concurrent vehicle control.
In Table III which follows is given the effect on total acid output after 60 minutes and 120 minutes of intraduodenal dose, of representative compounds of this invention.

[5] = system: bronchospasms elicited by acetylcholine; test: Bronchodilator activity (Konzett assay), acetylcholine bronchospasm; format: in vivo, guinea pigs; conditions: Cavia porcellus; spasmogenic agent acetylcholine; three logarithmic cumulative intravenous doses
Procedure: as §1, §2

[6] = Rattus norvegicus, intraduodenal, 50 mg/kg, read-out: Percent inhibition of gastric acid secretion
[7] = total oral dose 25 mg/kg, controls 2.7-3.9
[8] = total oral dose 12.5 mg/kg, controls 2.5-3.0
[9] = 1 h, 60 min, read-out: % Inhibition of total acid output, after 60 minutes (A)
[10] = 2 h, 120 min, read-out: % Inhibition of total acid output, after 120 minutes (B)

| Compound | inhibition in vivo at 50 mg/kg (gastric acid secretion; [6]) [%] | ED50 [1] [mg/kg] | ED50 [2] [mg/kg] | ED50 [5] [mg/kg] | further results |
| --- | --- | --- | --- | --- | --- |
| C=C[C@@H]1CC(=O)[C@H](C/C=C\CCCC(=O)O)[C@H]1/C=C/[C@@H](O)CCCCC [l-11α-vinyl-11-deoxyprostaglandin-E2, 11-deoxy-11α-vinyl-prostaglandin E2] | 59 | 1.2 | 1.3 |  |  |
| CCCCC[C@H](O)/C=C/[C@@H]1[C@@H](C/C=C\CCCC(=O)O)[C@@H](O)C[C@H]1C [l-11α-methyl-11-deoxyprostaglandin-F2 α, 11-deoxy-11α-methyl-prostaglandin F2α] | 70 | 0.038 | 0.013 |  | Ulcer score, treated animals [3, 7]: 1.8 |
| CCCCC[C@H](O)/C=C/[C@@H]1[C@@H](C/C=C\CCCC(=O)O)[C@@H](O)C[C@H]1SC [11α-methylthio-11-deoxyprostaglandin F2α] | 61 | 2.63 | 1.6 |  | Ulcer score, treated animals [3, 8]: 1.2 |
| CCCCC[C@H](O)/C=C/[C@H]1[C@H](CC)CC(=O)[C@@H]1C/C=C\CCCC(=O)O [l-11α-ethyl-11-deoxyprostaglandin-E2, 11-deoxy-11α-ethyl-prostaglandin E2] |  |  | 1.24 | 3.9 | Ulcer score, treated animals [3, 7]: 2.2; inhibition in vivo at 10 mg/kg [4, 9]: 57%; inhibition in vivo at 10 mg/kg [4, 10]: 66% |
| CCCCC[C@H](O)/C=C/[C@@H]1[C@@H](C/C=C\CCCC(=O)O)C(=O)C[C@H]1C(C)C [l-11α-isopropyl-11-deoxyprostaglandin-E2, 11-deoxy-11α-isopropyl-prostaglandin E2] | 42 | 8.95 |  |  |  |
| CCCCC[C@H](O)/C=C/[C@@H]1[C@@H](C/C=C\CCCC(=O)O)C(=O)C[C@H]1c1ccccc1 [l-11α-phenyl-11-deoxyprostaglandin-E2, l-11-deoxy-11α-phenylprostaglandin-E2] | 58 | 0.46 |  |  |  |
| CCCCC[C@H](O)/C=C/[C@@H]1[C@@H](C/C=C\CCCC(=O)O)[C@@H](O)C[C@H]1C#N [l-11α-cyano-11-deoxyprostaglandin-F2 α, 11α-cyano-11-deoxyprostaglandin F2 α] | 43 | 0.03 |  | 0.051 | Ulcer score, treated animals [3, 7]: 1.3 |
| CCCCC[C@H](O)/C=C/[C@H]1[C@@H](CO)CC(=O)[C@@H]1C/C=C\CCCC(=O)O [11-deoxy-11β-hydroxymethyl-prostaglandin E2] |  | 0.3 | 0.065 | 0.25 | inhibition in vivo at 8 mg/kg (gastric acid secretion; Rattus norvegicus, sc, subcutaneous, 8 mg/kg, read-out: Percent inhibition of gastric acid secretion): 44% |
| CCCCC[C@H](O)/C=C/[C@H]1[C@@H](C#N)CC(=O)[C@@H]1C/C=C\CCCC(=O)O [l-11β-cyano-11-deoxyprostaglandin-E2, l-11-deoxy-11β-cyanoprostaglandin-E2] |  | 3.1 | 54.9 |  | inhibition in vivo at 10 mg/kg [4, 9]: 26%; inhibition in vivo at 10 mg/kg [4, 10]: 43% |
| CCCCC[C@H](O)/C=C/[C@H]1[C@H](C#N)CC(=O)[C@@H]1C/C=C\CCCC(=O)O [l-11α-cyano-11-deoxyprostaglandin-E2, l-11-deoxy-11α-cyanoprostaglandin-E2] |  | 0.0003 | 0.0014 | 0.0053 | inhibition in vivo at 10 mg/kg [4, 9]: 49%; inhibition in vivo at 10 mg/kg [4, 10]: 18% |
| CCCCC[C@H](O)/C=C/[C@H]1[C@H](CC(=O)O)CC(=O)[C@@H]1C/C=C\CCCC(=O)O [11-deoxy-11α-carboxymethylprostaglandin E2] |  | 5.5 | 3.4 | 4.6 |  |
| CC/C=C\CC(O)/C=C/C1C(C/C=C\CCCC(=O)O)C(=O)CC1C(C(=O)O)C(=O)O (stereo not drawn) [l-11α-dicarboxymethyl-11-deoxyprostaglandin-E3] |  |  |  |  | ED50, bronchodilator activity [1]: 3.3 mg/kg |
| CCCCC[C@H](O)CC[C@H]1[C@H](C)CC(=O)[C@@H]1CCCCCCC(=O)O [11-deoxy-11α-methyl-13,14-dihydroprostaglandin E1] | 45 |  |  | 0.773 | Ulcer score, treated animals [3, 8]: 2.3; Ulcer score, treated animals ([3]; total oral dose 50 mg/kg, controls 2.5-3.2): 1.7 |
| CCCCC[C@H](O)/C=C/[C@H]1[C@H](C[N+](=O)[O-])CC(=O)[C@@H]1C/C=C\CCCC(=O)O [11-deoxy-11α-nitromethyl prostaglandin E2] |  |  | 1.4 | 1.7 | Ulcer score, treated animals ([3]; total oral dose 100 mg/kg, controls 3.2): 1.0; inhibition in vivo at 100 mg/kg (gastric acid secretion; Rattus norvegicus, intraduodenal, 100 mg/kg, read-out: Percent inhibition of gastric acid secretion): 74% |
| CCCCCC(C)/C=C/[C@H]1[C@H](C)CC(=O)[C@@H]1C/C=C\CCCC(=O)O (stereo partly drawn) [l-11α,15-dimethyl-11,15-bisdeoxyprostaglandin-E2] | 60 | 18.1 |  |  |  |
| CCCCC[C@H](O)/C=C/[C@H]1[C@H](C(N)=O)CC(=O)[C@@H]1C/C=C\CCCC(=O)O [11α-carboxamido-11-deoxyprostaglandin E2] |  |  |  |  | Percent inhibition of gastric acid secretion (gastric acid secretion; intraduodenal, 50 mg/kg): 27%; % Inhibition of total acid output, after 60 minutes (A) ([4]; 60 min): 27%; % Inhibition of total acid output, after 120 minutes (B) ([4]; 120 min): 35%; ED50, bronchodilator activity [1]: 1.7 mg/kg; ED50, bronchodilator activity [2]: 0.53 mg/kg |
